Reference: patent US6495699B2, “Metalloproteinase inhibitors, pharmaceutical compositions containing them, and their use” (Agouron Pharmaceuticals Inc., priority 1996, dated 2002)

Tests used:
Format in all cases: biochemical
[1] = biological target: T1, catalytic domain of human stromelysin (Hsln) (Homo sapiens, UniProt P08254); assay: Fluorometric MCA-peptide hydrolysis assay, stromelysin (Hsln); conditions: apparent Ki; 10 μM MCA peptide substrate, 37° C., pH 7.5; read-out: Hsln (Ki,app)
T1 construct: The catalytic domain of human stromelysin (Hsln) was obtained by expression and purification of a C-terminally truncated prostromelysin-1; made in house; host or cells: E. coli BL21
Description: The catalytic domain of human stromelysin (Hsln) was obtained by expression and purification of a C-terminally truncated prostromelysin-1 from E. coli host BL21 (see Marcy et al. Biochem., 1991, 30, 6476). The subsequent activation of the mature form (Hsln) was completed with 2 mM APMA for 1 hour at 37° C., followed by separation using a sizing column.
(§1) Assays were performed in assay buffer (50 mM Tricine pH 7.5, 200 mM sodium chloride, 10 mM calcium chloride, 0.5 mM zinc acetate containing 2% dimethyl sulfoxide (DMSO)) once the substrate and inhibitor were diluted into it. Stock solutions of inhibitors were prepared in 100% DMSO. Stock solutions of the substrate were prepared in 100% DMSO at a concentration of 6 mM.
(§2) The assay method was based on the hydrolysis of MCA-Pro-Leu-Gly-Leu-DPA-Ala-Arg-NH2 (American Peptide Co.) at 37° C. (see Knight, C. G. et al., FEBS, 1992, 296, 263-266). The fluorescence changes were monitored with a Perkin-Elmer LS-50B fluorimeter using an excitation wavelength of 328 nm and an emission wavelength of 393 nm. The substrate concentration used in the assays was 10 μM. The inhibitor was diluted into the assays from a solution in 100% DMSO, and controls substituted an equal volume of DMSO so that the final DMSO concentration from inhibitor and substrate dilution in all assays was 2%. […] Proper determination of steady-state rates of substrate cleavage required assay lengths of 60 minutes to allow for complete equilibration of the enzyme-inhibitor complex.
(§3) The Km for the MCA peptide substrate with the matrix metalloproteinases is quite high and exceeds its solubility under assay conditions. Consequently, the apparent Ki (Ki,app) was determined to describe the strength of inhibition. However, in this case, Ki,app would be essentially equal to Ki since [S]<<Km. For the determination of Ki,app, the concentration of the inhibitor was varied at a constant and low concentration of substrate and the steady-state rates of fluorescence change determined. In most cases absorptive quench due to the presence of ligand was not observed. For slow-binding inhibitors, onset of inhibition curves were collected for at least 45 minutes so that equilibrium was established. Steady-state rates of fluorescence change were obtained by fitting a curve to an equation for a single exponential decay containing a linear phase. The fitted value of the linear phase was taken as the steady-state rate. The steady-state rates were fitted to the Michaelis equation describing competitive inhibition by non-linear methods. Data resulting from tight-binding inhibition was analyzed, and Ki,app determined by fitting the data to the tight-binding equation of Morrison (Biochem. Biophys. Acta, vol. 185, pp. 269-286 (1969)) by non-linear methods.

[2] = biological target: T2, human progelatinase A (GelA), catalytic and fibronectin-like portion (Homo sapiens, UniProt P08253); assay: Fluorometric MCA-peptide hydrolysis assay, gelatinase A (GelA); conditions: apparent Ki, 10 μM MCA peptide substrate, 37° C., pH 7.5; for Ki: read-out: GelA (Ki,app)
T2 construct: The catalytic and fibronectin-like portion of human progelatinase A (GelA) was expressed as a fusion protein with ubiquitin; ubiquitin; made in house; host or cells: E. coli
Description: The catalytic and fibronectin-like portion of human progelatinase A (GelA) was expressed as a fusion protein with ubiquitin in E. Coli. Assays were carried out on autocatalytically activated material.
as §1, §2, §3

[3] = biological target: T3, human collagenase-3 (Coll3) (Homo sapiens, UniProt P45452); assay: Fluorometric MCA-peptide hydrolysis assay, collagenase-3 (Coll3); conditions: apparent Ki; 10 μM MCA peptide substrate, 37° C., pH 7.5; read-out: Coll3 (Ki,app)
T3 construct: the catalytic domain was liberated by treatment with 2 mM APMA at room temperature overnight; ubiquitin (N, cleaved yes); made in house; host or cells: E. coli
Description: The propeptide and catalytic domain of human collagenase-3 (Coll3) was expressed in E. coli as an N-terminal fusion protein with ubiquitin. After purification of the fusion from inclusion bodies, the catalytic domain was liberated by treatment with 2 mM APMA at room temperature overnight. Final purification was completed using copper chelate chromatography.
as §1, §2
as §3, with “In most cases absorptive quench due to the presence of ligand was not observed.” left out

Human matrilysin (Matr) = biological target: T4, Human matrilysin (Matr) (Homo sapiens, UniProt P09237); assay: Fluorometric MCA-peptide hydrolysis assay, matrilysin (Matr); conditions: apparent Ki; 10 μM MCA peptide substrate, 37° C., pH 7.5; read-out: Matr (Ki,app)
T4 construct: the catalytic domain was liberated by treatment with 2 mM APMA at 37° C. for 2 hours; ubiquitin (cleaved yes); made in house; host or cells: E. coli
T4 sequence (P09237 95-267): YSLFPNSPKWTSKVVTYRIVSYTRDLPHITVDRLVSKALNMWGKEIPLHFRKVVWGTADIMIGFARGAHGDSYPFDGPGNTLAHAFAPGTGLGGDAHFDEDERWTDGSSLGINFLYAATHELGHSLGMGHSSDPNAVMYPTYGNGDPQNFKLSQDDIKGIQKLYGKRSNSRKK
Description: Human matrilysin (Matr) was expressed in E. coli as a fusion protein with ubiquitin. After purification of the matrilysin/ubiquitin fusion from inclusion bodies, the catalytic domain was liberated by treatment with 2 mM APMA at 37° C. for 2 hours. Final purification was complete using copper chelate chromatography.
as §1, §2, §3

T2 sequence (P08253 110-465 limits assumed): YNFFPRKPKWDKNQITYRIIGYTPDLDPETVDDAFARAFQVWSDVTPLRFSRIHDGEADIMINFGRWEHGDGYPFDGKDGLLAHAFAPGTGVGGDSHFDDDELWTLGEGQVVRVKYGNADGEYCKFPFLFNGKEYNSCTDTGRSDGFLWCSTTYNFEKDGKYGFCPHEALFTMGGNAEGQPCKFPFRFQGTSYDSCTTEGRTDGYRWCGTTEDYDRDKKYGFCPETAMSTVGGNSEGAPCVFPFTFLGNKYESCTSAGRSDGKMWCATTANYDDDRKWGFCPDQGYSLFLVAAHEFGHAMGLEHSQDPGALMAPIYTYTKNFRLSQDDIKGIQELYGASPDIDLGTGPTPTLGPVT
T1 sequence (P08254 100-272 limits assumed): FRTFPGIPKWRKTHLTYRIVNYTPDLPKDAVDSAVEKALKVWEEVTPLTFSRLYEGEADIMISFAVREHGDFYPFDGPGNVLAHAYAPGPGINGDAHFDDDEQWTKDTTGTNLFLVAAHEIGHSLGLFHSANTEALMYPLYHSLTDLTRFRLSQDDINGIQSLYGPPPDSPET

Compound	Ki [1] [nM]	GelA (Ki,app) [2] [nM]	Ki [3] [nM]	Ki (Human matrilysin (Matr)) [nM]	Ki [2] [nM]
CC(C)(C)[C@@H](CO)NC(=O)[C@@H]([C@H](CCCO)C(=O)O)n1ccc(-c2ccc(-c3ccccc3)cc2)c1 [Example 11, 2S-[1R-(3-(Biphenyl-4-yl)-1H-pyrrol-1-yl)-1-(1(S)-hydroxymethyl-2,2-dimethyl-propylcarbamoyl)-methyl]-5-hydroxypentanoic Acid]	62	60	> 750		
CC(=O)[C@H](CC(C)C)NC(=O)[C@@H](CC(=O)O)n1ccc(-c2ccc(-c3ccccc3)cc2)c1 [Example 2, N-(1(S)-Acetyl-3-methylbutyl)-3(R)-[3-(biphenyl-4-yl)-1H-pyrrol-1-yl)succinamic Acid]	89	6.2	123	400	
CC(C)C[C@H](NC(=O)[C@@H](CC(=O)O)n1ccc(-c2ccc(-c3ccccc3)cc2)c1)C(C)O (mixture of isomers) [Example 3]	150	58	180	1250	
O=C(O)C(F)(F)F.O=C(O)C[C@H](C(=O)N[C@H](CO)Cc1c[nH]cn1)n1ccc(-c2ccc(-c3ccccc3)cc2)c1 [Example 1(g), 3(R)-[3-(Biphenyl-4-yl)-1H-pyrrol-1-yl]-N-[2-hydroxy-1(S)-[(1H-imidazol-4-yl)methyl]ethyl]succinamic Acid Trifluoroacetate Salt]	58	8.5	58.5		
CON(C)C(=O)[C@H](CC(C)C)NC(=O)[C@@H](CC(=O)O)n1ccc(-c2ccc(-c3ccccc3)cc2)c1 [Example 1(l)]	317	54	227		
CNC(=O)[C@@H](CC(=O)O)n1ccc(-c2ccc(-c3ccncc3)cc2)c1 [Example 7(d), N-Methyl-3(R)-[3-[4-(pyridin-4-yl)phenyl]-1H-pyrrol-1-yl]succinamic Acid]	1580	121	284		
CC(C)C[C@H](NC(=O)[C@@H](CC(=O)O)n1ccc(-c2ccc(-c3ccncc3)cc2)c1)c1ncc[nH]1.O=CO [Example 7(c), N-[1(S)-(1H-Imidazol-2-yl)-3-methylbutyl]-3(R)-[3-[4-(pyridin-4-yl)phenyl]-1H-pyrrol-1-yl]succinamic Acid Formate Salt]	26	0.055	1.3	5330	
3(R)-[3-(4′-Cyanobiphenyl-4-yl)-1H-pyrrol-1-yl]-N-[2,2-dimethyl-1(S)-(hydroxymethyl)propyl]succinamic Acid Triethylammonium Salt [Example 5(g)]	57		14.5		2.2
CC(C)(C)[C@@H](CO)NC(=O)[C@@H](CC(=O)NO)n1ccc(-c2ccc(-c3ccncc3)cc2)c1 [Example 9, N^1-[2,2-Dimethyl-1(S)-(hydroxymethyl)propyl]-N^4-hydroxy-2(R)-[3-[4-(pyridin-4-yl)phenyl]-1H-pyrrol-1-yl]succinamide]	0.2	0.011	0.018		
C=CC[C@H](C(=O)O)[C@H](C(=O)N[C@H](CO)C(C)(C)C)n1ccc(-c2ccc(-c3ccccc3)cc2)c1 [Example 12, 2S, 2(1S)-[[3-(Biphenyl-4-yl)-1H-pyrrol-1R-yl]-[2,2-dimethyl-1(S)-(hydroxymethyl)propylcarbamoyl]methyl]pent-4-enoic Acid]	> 500	> 500			
O=C(O)C[C@H](C(=O)N[C@H](CO)Cc1ccccc1)n1ccc(-c2ccc(-c3ccccc3)cc2)c1 [1(a), N-(1(S)-Benzyl-2-hydroxyethyl)-3(R)-[3-(biphenyl-4-yl)-1H-pyrrol-1-yl]succinamic Acid]	65	5.4	30	1000	
O=C(C[C@H](C(=O)N[C@H](CO)Cc1ccccc1)n1ccc(-c2ccc(-c3ccccc3)cc2)c1)NO [Example 8(a)]	0.69	0.027		36	
O=C(O)C[C@H](C(=O)N[C@H](CO)Cc1ccccc1)c1ccc(-c2ccc(-c3ccccc3)cc2)o1 [Example 15(a), N-(1(S)-Benzyl-2-hydroxyethyl)-3(S)-(2-(biphenyl-4-yl)furan-5-yl)succinamic Acid]	92	72	300		
CNC(=O)[C@@H](NC(=O)[C@@H](CC(=O)O)c1ccn(-c2ccc(-c3ccc(C#N)cc3)cc2)c1)C(C)(C)C [Example 14(b), 3(S)-[1-(4′-Cyanobiphenyl-4-yl)-1H-pyrrol-3-yl]-N-[2,2-dimethyl-1(S)-(methylcarbamoyl)propyl]succinamic Acid]	1.3	0.012	0.028		
3(R)-[3-(4-Cyanophenyl)-1H-pyrrol-1-yl]-N-(2,2-dimethyl-1(S)-(hydroxymethyl)propyl)succinamic Acid Triethylammonium Salt [Example 5(h)]	650		43		17.4
CNC(=O)[C@@H](NC(=O)C(CC(=O)O)c1ccc(-c2ccc(-c3ccccc3)cc2)o1)C(C)(C)C (stereo partly drawn) [Example 15(b), N-[2,2-Dimethyl-1(S)-(methylcarbamoyl)propyl]-3-(2-(biphenyl-4-yl)-furan-5-yl)succinamic Acid]	122	91	1020		
CNC(=O)[C@@H](NC(=O)[C@@H](CC(=O)O)n1ccc(C(=O)Cc2ccc(C#N)cc2)c1)C(C)(C)C [Example 1(p), 3(R)-[3-[(4-Cyanophenyl)acetyl]-1H-pyrrol-1-yl]-N-(2,2-dimethyl-1(S)-(methylcarbamoyl)propyl]succinamic Acid]	55000	1230			
O=C(O)C[C@H](C(=O)N[C@@H]1CCCC[C@H]1O)n1ccc(-c2ccc(-c3ccccc3)cc2)c1 [Example 1(h), 3(R)-[3-(Biphenyl-4-yl)-1H-pyrrol-1-yl]-N-(2(R)-hydroxycyclohex-1(R)-yl)succinamic Acid]	822	58	3000		
